Data taken from patent US5691351A, “Bis-(Heteroarylmethoxyphenyl)cycloalkyl carboxylates as inhibitors of leukotriene biosynthesis” (Abbott Laboratories, priority 1996, dated 1997).
Structures can show the parent of a compound that is named as a salt. Where two headings read alike, the source gives them in different places.

What was measured:
[1] = test system: Calcium Ionophore Stimulated Leukotriene Formation in Human Polymorphonuclear Leukocytes; assay: Calcium ionophore-induced LTB4 formation in human polymorphonuclear leukocytes (Lipoxygenase Inhibition Determination); assay type: cell-based; details: human PMNL, 15 min preincubation, calcium ionophore 8.3 μM, 10 min at 37° C., LTB4 by enzyme-linked immunoassay or HPLC, read-out: Inhibitory Potencies Against Calcium Ionophore Stimulated Leukotriene Formation in Human Polymorphonuclear Leukocytes, IC50
Procedure: Leukotriene biosynthesis inhibitory activity of representative compounds of the present invention was evaluated in an assay involving calcium ionophore-induced LTB4 expressed in human polymorphornuclear leukocytes (PMNL). Human PMNL isolated from heparinized (20 USP units/mL) venous blood (25 mL) obtained from healthy volunteers was layered over an equal volume of Ficoll-Hypaque Mono-Poly Resolving Medium (ICN Flow, Costa Mesa, Calif.) and centrifugated at 400×g for 40 min at 20° C. The PMNL was collected, erythrocytes lysed and washed 2× and suspended at 1.0×10^7 cells/mL in Earle's balanced salt solution with 17 mM Earle's HEPES. […] Incubations were stopped with the addition of two volumes of ice-cold methanol followed by centrifuging the cell suspensions at 4° C. for 10 min at 450×g. The mount of LTB4 in the methanol extract was analyzed by enzyme-linked immunoassay or by HPLC analysis.

[2] = test system: leukotriene synthesis; details: Bioorganic and Medicinal Chemistry Letters, 1: 645-648 (1991); cited from earlier work

| Compound | IC50 [1] | also measured |
| --- | --- | --- |
| O=C(O)C1CCC(c2ccc(OCc3ccc4ccccc4n3)cc2)(c2ccc(OCc3ccc4ccccc4n3)cc2)CC1 [Example 1, 4,4-bis-(4(2-quinolylmethoxy)phenyl)cyclohexane carboxylic acid] | 59 nM |  |
| O=C(O)C1CCC(c2ccc(OCc3ccc4ccccc4n3)cc2)(c2ccc(OCc3ccc4ccccc4n3)cc2)CC1 [Example 2, 4,4-bis-(4-(2-quinolylmethoxy)phenyl)cyclohexane carboxylic acid sodium salt] |  | IC50 ([1]; sodium salt): 47 nM |
| CC(=NOC1CCC(c2ccc(OCc3ccc4ccccc4n3)cc2)(c2ccc(OCc3ccc4ccccc4n3)cc2)CC1)C(=O)O [Example 5, sodium salt] | 37 nM |  |
| O=C(O)CSC(CCCc1ccc(Cl)cc1)c1ccc(OCc2ccc3ccccc3n2)cc1 [L-674,636, {[4-(4-chlorophenyl)-1-[4-(2-quinolylmethoxy)phenyl]-butyl]thio}acetic acid] |  | leukotriene synthesis inhibitor (in words) [2]: potent and orally active leukotriene synthesis inhibitor |
